# From patent US20020136817A1 (priority 1999, published 2002)
# Counter-ions that a name gives are not always drawn.
# Key:
# calcium kidney stones = experiment: Urinary risk of forming calcium kidney stones in individuals with oxalocalcium kidney stones, before and 15 days after treatment start; type: in vivo, human; conditions: for drop of the risk of forming calcium stones: 15 days after treatment start, citrate 6.48 g/day (Group II, potassium citrate tablets), phytate 120 mg/day (Group III, dietetic supplement)
# Procedure: These individuals have been divided into three groups: 19 individuals with kidney stones (Group I), 38 individuals with kidney stones (Group II) and 17 individuals with kidney stones (Group III). The urinary risk to form calcium kidney stones was evaluated for each individual before being subjected to any pharmacological treatment. […] 15 days after treatment starting, the urinary risk of forming calcium kidney stones was evaluated again for each individual.
# [1] = cited from earlier work
Structure (SMILES),drop of the risk of forming calcium stones (calcium kidney stones) [%],"effect on urine pH (calcium kidney stones; treatment of calcium kidney stones, compared with citrate)",levels of phytates in urine and blood without intake ([1]; after 10 days without a phytate intake),maximum urinary excretions as share of the total intake ([1]; diet supplemented with products rich in phytates),intake above which the amount excreted in urine does not increase ([1]; dose-dependent urinary excretion)
"O=C(O)CC(O)(CC(=O)O)C(=O)O [citrate, potassium citrate, reference compound]",52,–,–,–,–
"O=P(O)(O)O[C@H]1[C@H](OP(=O)(O)O)[C@@H](OP(=O)(O)O)[C@H](OP(=O)(O)O)[C@@H](OP(=O)(O)O)[C@H]1OP(=O)(O)O [phytate, inositol hexaphosphate]",50,does not cause increases of the urine pH,drop to practically undetectable values,1-5%,20.9 mg/kg of body weight
